Data published in article PMC10641831 (Journal of Medicinal Chemistry, 2023).
Where “and” joins values, the source holds several entries; their conditions need not be identical. Equal entries are not always repeated. Where two headings read alike, the source gives them in different places. Numbered stars: 1 amine (or outer) side, 2 acyl side, 3 side chain; on linkers, the order of the positions; unused ones are H or OH. Bridge positions count the residues as written; N and C are the ends. Square brackets hold non-standard residues; d marks the D form. Peptide text beside a SMILES is read from it. AMPB(E) = O=C(c1ccc(/N=N/c2ccc(CN[*:1])cc2)cc1)[*:2]; X1 = O=C([C@H](Cc1ccc(/N=N/c2ccccc2)cc1)N[*:1])[*:2]

Key:
[1] = target: T1, hV1bR (Homo sapiens, UniProt P47901); experiment: IP-One accumulation assay, agonist function, HEK293 cells expressing hV1bR; assay type: cell-based; conditions: for Emax: HEK293, relative to the effect of VP, read-out: V1bR Emax ± SEM; for V1bR E/Z ratio EC50: ratio of EC50 of E- and Z-isomer
T1 construct: expressed in transfected cells
T1 sequence (P47901 1-424): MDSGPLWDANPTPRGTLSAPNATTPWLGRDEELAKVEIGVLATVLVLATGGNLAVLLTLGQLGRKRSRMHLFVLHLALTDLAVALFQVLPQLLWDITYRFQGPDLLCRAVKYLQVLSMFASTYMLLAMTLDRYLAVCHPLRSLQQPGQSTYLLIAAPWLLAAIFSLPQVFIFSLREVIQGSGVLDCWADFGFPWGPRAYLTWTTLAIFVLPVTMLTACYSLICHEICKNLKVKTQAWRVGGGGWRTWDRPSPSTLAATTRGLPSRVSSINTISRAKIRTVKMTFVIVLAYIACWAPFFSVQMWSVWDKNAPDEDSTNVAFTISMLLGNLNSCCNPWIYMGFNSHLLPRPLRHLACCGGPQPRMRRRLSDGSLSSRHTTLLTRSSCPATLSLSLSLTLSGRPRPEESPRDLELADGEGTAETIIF

[2] = target: T2, hV1aR (Homo sapiens, UniProt P37288); experiment: IP-One accumulation assay, agonist function, HEK293 cells expressing hV1aR; assay type: cell-based; conditions: IP-One, stable HEK293 hV1aR; μM; read-out: V1aR EC50
T2 construct: expressed in transfected cells

[3] = Thermal half-life of the Z-isomer (UV/vis, 96-well plate); assay type: physicochemical; conditions: for t1/2 (thermal half-life, Figure S50): 50 µM in HEPES buffer + 0.25% DMSO, pre-irradiated with 340 nm; for t1/2 (thermal half-life Z to E): preirradiation with 340 nm
Source text: All photoprobes were investigated regarding their photophysical properties in aqueous buffer (pH 7.5), mimicking the conditions of the biological functional assays. […] Upon irradiation with 340 nm light for 10 s and monitoring via UV/vis spectroscopy, all compounds could be switched to the Z-isomer, reaching the photostationary state (PSS). Compounds 8–17 containing azobenzene could be switched back to the E-isomer by irradiation at 420 nm for 60 s. Compounds 18 and 19 containing arylazopyrazole could be reverted to the E isomer by using 528 nm light. […] The PSS, when switched to the Z-isomer, was consistently good, with a PSS of 81–95%. […] The thermal half-lives of 10 and 12 were also measured at 37 °C, representing the temperature during the biological assays. As expected, the thermal half-lives decreased, however, the ratio of E and Z isomers remained stable during the incubation period of the biological assays (1 h).
Starting materials and commercial reagents were purchased from Acros, Alfa Aesar, Fisher, Fluka, Fluorochem, Merck (Sigma-Aldrich), TCI and VWR and were used without further purification. Solvents were used in p.a. quality or dried according to common procedures if necessary. All reactions with oxygen- or moisture-sensitive reagents were carried out in glassware that was dried before use by heating under vacuum. Dry nitrogen or argon was used for an inert gas atmosphere. All NMR spectra were measured at room temperature (20 °C) using a Bruker Avance 400 (400 MHz for ^1H and 101 MHz for ^13C) or a Bruker Avance 600 (600 MHz for ^1H and 151 MHz for ^13C) NMR spectrometer. All chemical shifts are reported in δ-scale as parts per million [ppm] (multiplicity, coupling constant J, number of protons) relative to the solvent residual peaks. Coupling constants J are given in hertz [Hz]. Abbreviations used for signal multiplicity: ^1H NMR: s = singlet, d = doublet, dd = doublet of doublets, ddd = doublet of doublets of doublets, dt = doublet of triplets, t = triplet, td = triplet of doublets, q = quartet, and m = multiplet. All mass spectra were recorded on an Agilent Q-TOF 6540 UHD, Finnigan MAT SSQ 710 A, Jeol AccuTOF GCX or ThermoQuest Finnigan TSQ 7000 spectrometer. Absorption spectra were recorded on an UV/vis Agilent Cary 50 spectrometer. Thermal half-lives were measured on a 96-well plate in a Thermo Scientific Multiskan Spectrum. Analytical TLC was performed on silica gel-coated alumina plates (MN precoated TLC-sheets ALUGRAM Xtra SIL G/UV254). Visualization was done using UV light (254 or 366 nm) or staining with ninhydrin solution. Column chromatography was performed on a Biotage Isolera One automated flash purification system with a UV/vis detector. Analytical RP-HPLC was carried out on an Agilent 1220 Infinity LC System (column: P/No 00F-4251-B0, Phenomenex Luna 3 μm C18(2) 100 Å, LC column 150 mm × 2.0 mm). Purification by preparative HPLC was conducted on a preparative HPLC Agilent 1260 Infinity LC System [column: P/No 00G-4253-P0-AX, Phenomenex Luna 10 μm C18(2) 100 Å, LC column 250 mm × 21.2 mm]. The eluent systems were used as specified. After the purification process, solvents were removed by lyophilization. Switching experiments were done with a 340 nm LED (SSC VIOSYS CUD4AF1B, 500 mA, 55 mW), 420 nm LED (ILH-XC01-S410-SC211-WIR200, 800 mA, 440 mW), and 528 nm LED (OSRAM Oslon SSL 80 green, 500 mA, 34 mW). Purity of all photoprobes was >95% as determined by analytical RP-HPLC at 220 nm in DMSO.
1.3.4. Thermal Half-lives
Thermal half-lives were measured in a 96-well plate in a Thermo Scientific Multiskan® Spectrum at 25 °C (and at 37 °C for compounds 10 and 12). The solutions (50 µM in HEPES buffer + 0.25% DMSO) were pre-irradiated with 340 nm. The absorption at 335 nm was measured every 3 h. The data was analyzed using Origin 2021.
0,7 1/2 ExpDec1 Fit of Sheet1 B
Modell ExpDec1 0,35 Modell ExpDec1
0,6 Gleichung y = A 1 *e xp (-x/t1 ) + y0 Gleichung y = A 1 *e xp (-x/t1 ) + y0 […]

[4] = Photostationary state by analytical C18-RP-HPLC; assay type: physicochemical; conditions: for PSS (E → Z): irradiation with 340 nm, HEPES buffer; for PSS (Z → E): irradiation with 420 nm (8–17) or 528 nm (18, 19)
Procedure: All photoprobes were investigated regarding their photophysical properties in aqueous buffer (pH 7.5), mimicking the conditions of the biological functional assays.
1.3.2. Photostationary States
Photostationary states (PSS) were measured on analytical C18-RP-HPLC (flow: 0.3 mL/min, solvent A: H2O (0.05% TFA), solvent B: MeCN). To determine the PSS of the photoswitches, the samples (in 0.1 mM in HEPES buffer + 1% DMSO, pH 7.5) were irradiated first with 340 nm to get the Z-isomer. Afterwards, the sample was irradiated with 420 nm (8-17) or 528 nm (18 and 19), respectively, to get back to the E-isomer. The samples were measured at the isosbestic points.

[5] = target: T3, hOTR (Homo sapiens, UniProt P30559); experiment: IP-One accumulation assay, agonist function, HEK293 cells expressing hOTR; assay type: cell-based; conditions: for agonist character at OTR: IP-One assay; for potency difference between the E and Z isomers at OTR: EC50 E vs Z
T3 construct: expressed in transfected cells
T3 sequence (P30559 1-389): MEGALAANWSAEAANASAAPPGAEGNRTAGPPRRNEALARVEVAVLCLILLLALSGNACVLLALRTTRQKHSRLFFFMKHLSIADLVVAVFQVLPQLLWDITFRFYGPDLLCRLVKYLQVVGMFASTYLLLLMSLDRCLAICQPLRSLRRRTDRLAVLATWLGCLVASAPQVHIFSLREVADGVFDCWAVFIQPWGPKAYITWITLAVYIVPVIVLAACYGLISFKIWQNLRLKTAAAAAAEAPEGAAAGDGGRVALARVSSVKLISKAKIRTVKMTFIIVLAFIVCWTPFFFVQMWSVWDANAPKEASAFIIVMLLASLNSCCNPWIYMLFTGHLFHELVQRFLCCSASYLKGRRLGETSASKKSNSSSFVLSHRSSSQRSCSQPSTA

[6] = IP-One, stable HEK293 hV1bR, read-out: V1bR EC50 ± SEM
[7] = supplementary CSV, read-out: activity E-isomer OTR
[8] = supplementary CSV, read-out: activity Z-isomer OTR

T2 sequence (P37288 whole entry): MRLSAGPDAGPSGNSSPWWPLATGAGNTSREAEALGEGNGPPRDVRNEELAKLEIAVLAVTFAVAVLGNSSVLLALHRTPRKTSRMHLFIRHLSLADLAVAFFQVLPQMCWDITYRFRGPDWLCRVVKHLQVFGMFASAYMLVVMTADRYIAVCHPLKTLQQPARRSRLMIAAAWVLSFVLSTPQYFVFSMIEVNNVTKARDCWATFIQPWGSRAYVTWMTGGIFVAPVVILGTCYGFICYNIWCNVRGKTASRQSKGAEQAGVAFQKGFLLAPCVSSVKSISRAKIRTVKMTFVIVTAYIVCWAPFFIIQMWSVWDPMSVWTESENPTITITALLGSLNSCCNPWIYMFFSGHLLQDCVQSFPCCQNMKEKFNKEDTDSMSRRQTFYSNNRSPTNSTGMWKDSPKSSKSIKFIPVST

Row | SMILES | t1/2 (thermal half-life, Figure S50) ([3]; 25 °C) | t1/2 (thermal half-life Z to E) ([3]; 25 °C, HEPES buffer pH 7.4) | PSS (E → Z) [4] | agonist character at OTR [5] | EC50 [5, 7] | EC50 [5, 8] | potency difference between the E and Z isomers at OTR [5] | other results
1 | NC(=O)CC[C@@H]1NC(=O)[C@H](Cc2ccccc2)NC(=O)[C@H](Cc2ccc(O)cc2)NC(=O)[C@@H](N)CSSC[C@@H](C(=O)NCc2ccc(/N=N/c3ccc(C(=O)NCC(N)=O)cc3)cc2)NC(=O)[C@H](CC(N)=O)NC1=O [E-13] (H-CYFQNC[AMPB(E)]G-NH2; disulfide 1-6) |  |  |  |  |  |  |  | Emax [1]: 45 ± 3%; EC50 [1, 6]: 11300 nM; V1bR E/Z ratio EC50 [1]: 1.6; EC50 [2]: > 10 µM
2 | N=C(N)NCCC[C@H](NC(=O)c1ccc(/N=N/c2ccc(CNC(=O)[C@@H]3CSSC[C@H](N)C(=O)N[C@@H](Cc4ccc(O)cc4)C(=O)N[C@@H](Cc4ccccc4)C(=O)N[C@@H](CCC(N)=O)C(=O)N[C@@H](CC(N)=O)C(=O)N3)cc2)cc1)C(=O)NCC(N)=O [E-14] (H-CYFQNC[AMPB(E)]RG-NH2; disulfide 1-6) |  |  |  |  |  |  |  | Emax [1]: 48 ± 2%; EC50 [1, 6]: 4970 ± 754 nM; V1bR E/Z ratio EC50 [1]: 2.1; EC50 [2]: > 10 µM
3 | CC[C@H](C)[C@@H]1NC(=O)[C@H](Cc2ccc(/N=N/c3ccccc3)cc2)NC(=O)[C@@H](N)CSSC[C@@H](C(=O)N2CCC[C@H]2C(=O)N[C@@H](CC(C)C)C(=O)NCC(N)=O)NC(=O)[C@H](CC(N)=O)NC(=O)[C@H](CCC(N)=O)NC1=O [compound 8, [AzbS^2]-OT] (H-C[X1]IQNCPLG-NH2; disulfide 1-6) | 132 h | 132 h | 94% | partial agonism | 4500 ± 1010 nM | 3500 ± 1890 nM |  | decrease in potency compared to OT at OTR ([5]; EC50 vs OT): > 1400 fold; Emax ([5]; HEK293, relative to the effect of OT, read-out: OTR Emax ± SEM): 35 to 45%; EC50 ([5]; IP-One, both isomers, read-out: EC50 at OTR): 3000 to 4000 nM
4 | CC[C@H](C)[C@@H]1NC(=O)[C@H](Cc2ccc(O)cc2)NC(=O)[C@@H](N)CSSC[C@@H](C(=O)N[C@@H](Cc2ccc(/N=N/c3ccccc3)cc2)C(=O)N[C@@H](CC(C)C)C(=O)NCC(N)=O)NC(=O)[C@H](CC(N)=O)NC(=O)[C@H](CCC(N)=O)NC1=O [compound 9, [AzbS^7]-OT] (H-CYIQNC[X1]LG-NH2; disulfide 1-6) | 72 h | 72 h | 93% | full agonist | 346 ± 30 nM | 136 ± 6 nM | 2.5 fold | 
5 | CC[C@H](C)[C@@H]1NC(=O)[C@H](Cc2ccc(O)cc2)NC(=O)[C@@H](N)CSSC[C@@H](C(=O)NCc2ccc(/N=N/c3ccc(C(=O)NCC(N)=O)cc3)cc2)NC(=O)[C@H](CC(N)=O)NC(=O)[C@H](CCC(N)=O)NC1=O [compound 10, [AzbL^7/8]-OT] (H-CYIQNC[AMPB(E)]G-NH2; disulfide 1-6) | 40.8 h | 40.8 h | 86% | potent agonists | 94.6 ± 19 nM | 30.7 ± 4 nM | 3.1 fold and 3 fold | t1/2 (thermal half-life, Figure S50) ([3]; 37 °C): 24 h; t1/2 (thermal half-life Z to E) ([3]; 37 °C): 24 h; PSS (Z → E) [4]: 81%
6 | CC[C@H](C)[C@@H]1NC(=O)[C@H](Cc2ccc(O)cc2)NC(=O)[C@@H](N)CSSC[C@@H](C(=O)NCc2ccc(/N=N/c3ccc(C(=O)N[C@@H](CC(C)C)C(=O)NCC(N)=O)cc3)cc2)NC(=O)[C@H](CC(N)=O)NC(=O)[C@H](CCC(N)=O)NC1=O [compound 11, [AzbL^7]-OT] (H-CYIQNC[AMPB(E)]LG-NH2; disulfide 1-6) | 28.8 h | 28.8 h | 87% | potent agonists | 263 ± 21 nM | 134 ± 17 nM | 2 fold | PSS (Z → E) [4]: 85%
7 | NC(=O)CC[C@@H]1NC(=O)[C@H](Cc2ccccc2)NC(=O)[C@H](Cc2ccc(O)cc2)NC(=O)[C@@H](N)CSSC[C@@H](C(=O)NCc2ccc(/N=N/c3ccc(C(=O)N[C@@H](CCCN=C(N)N)C(=O)NCC(N)=O)cc3)cc2)NC(=O)[C@H](CC(N)=O)NC1=O [compound 14, [AzbL^7]-VP] (H-CYFQNC[AMPB(E)]RG-NH2; disulfide 1-6) |  |  |  |  |  |  |  | EC50 ([1]; supplementary CSV, read-out: activity Z-isomer V1bR): 2370 ± 607 nM
